Legend:
Test in all cases: B2 Post-Emergence Efficacy - Test 2
Assay type in all cases: in vivo
Details in all cases: 15 days after application, 0-100 scale
[1] = tested on: Lolium perenne (LOLPE)
Summary of the method: (§1)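 The compound, dissolved in IF50 and made up as an aqueous spray with 0.2% v/v Genapol X080, is applied post-emergence to plants raised for 12 days from seed. Injury is assessed 15 days afterwards, 0 for undamaged through 100 for fully killed.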

[2] = tested on: Polygonum convolvulus (POLCO)
Summary of the method: as §1

[3] = tested on: Sida spinosa (SIDSP)
Summary of the method: as §1

[4] = tested on: Veronica persica (VERPE)
Summary of the method: as §1

SMILES | Herbicidal activity LOLPE ([1]; 15 g/Ha) | Herbicidal activity LOLPE ([1]; 30 g/Ha) | Herbicidal activity LOLPE ([1]; 60 g/Ha) | Herbicidal activity LOLPE ([1]; 125 g/Ha) | Herbicidal activity LOLPE ([1]; 250 g/Ha) | Herbicidal activity LOLPE ([1]; 500 g/Ha) | Herbicidal activity POLCO ([2]; 15 g/Ha) | Herbicidal activity POLCO ([2]; 60 g/Ha) | Herbicidal activity POLCO ([2]; 125 g/Ha) | Herbicidal activity POLCO ([2]; 250 g/Ha) | Herbicidal activity POLCO ([2]; 500 g/Ha) | Herbicidal activity SIDSP ([3]; 60 g/Ha) | Herbicidal activity SIDSP ([3]; 250 g/Ha) | Herbicidal activity SIDSP ([3]; 500 g/Ha) | Herbicidal activity VERPE ([4]; 15 g/Ha) | Herbicidal activity VERPE ([4]; 30 g/Ha) | Herbicidal activity VERPE ([4]; 60 g/Ha) | Herbicidal activity VERPE ([4]; 125 g/Ha) | Herbicidal activity VERPE ([4]; 250 g/Ha) | Herbicidal activity VERPE ([4]; 500 g/Ha) | further results
Cc1nn(C)c(=O)c(-c2c(F)ccc(Cl)c2CCc2ccc(C#N)cc2)c1O [Compound 1.024, 4-[3-chloro-6-fluoro-2-[2-[4-(cyano)phenyl]ethyl]phenyl]-5-hydroxy-2,6-dimethyl-pyridazin-3-one] | 10 | 70 | 70 | 90 | 90 | 90 | 80 | 90 | 90 | 90 | 100 | 90 | 100 | 100 | 80 | 80 | 90 | 80 | 100 | 100 | Herbicidal activity SIDSP ([3]; 15 g/Ha): 80; Herbicidal activity SIDSP ([3]; 30 g/Ha): 90; Herbicidal activity SIDSP ([3]; 125 g/Ha): 100
Cc1nn(C)c(=O)c(-c2c(F)ccc(Cl)c2CCc2ccc(C(F)(F)F)nc2)c1O [Compound 1.042, 4-[3-chloro-6-fluoro-2-[2-[6-(trifluoromethyl)-3-pyridyl]ethyl]phenyl]-5-hydroxy-2,6-dimethyl-pyridazin-3-one] | 60 | 70 | 70 | 90 | 90 | 90 | 80 | 90 | 90 | 90 | 100 | 100 | 100 | 100 | 80 | 90 | 100 | 100 | 100 | 100 | Herbicidal activity POLCO ([2]; 30 g/Ha): 80; Herbicidal activity SIDSP ([3]; 15 g/Ha): 90; Herbicidal activity SIDSP ([3]; 30 g/Ha): 90
Cc1nn(C)c(=O)c(-c2c(F)ccc(Cl)c2CCc2ccc(F)cc2)c1O [Compound 1.048, 4-[3-chloro-6-fluoro-2-[2-(4-fluorophenyl)ethyl]phenyl]-5-hydroxy-2,6-dimethyl-pyridazin-3-one] | 20 | 40 | 90 | 90 | 90 | 90 | 60 | 90 | 90 | 90 | 90 | 80 | 90 | 90 | 60 | 80 | 90 | 80 | 100 | 100 | Herbicidal activity POLCO ([2]; 30 g/Ha): 70; Herbicidal activity SIDSP ([3]; 15 g/Ha): 80; Herbicidal activity SIDSP ([3]; 30 g/Ha): 80; Herbicidal activity SIDSP ([3]; 125 g/Ha): 90
Cc1nn(C)c(=O)c(-c2c(F)ccc(Cl)c2CCc2ccccc2C(F)(F)F)c1O [Compound 1.066, 4-[3-chloro-6-fluoro-2-[2-[2-(trifluoromethyl)phenyl]ethyl]phenyl]-5-hydroxy-2,6-dimethyl-pyridazin-3-one] | 10 | 20 | 80 | 90 | 90 | 100 | 70 | 90 | 90 | 100 | 100 | 80 | 90 | 100 | 80 | 90 | 100 | 100 | 100 | 100 | Herbicidal activity POLCO ([2]; 30 g/Ha): 80; Herbicidal activity SIDSP ([3]; 15 g/Ha): 40; Herbicidal activity SIDSP ([3]; 30 g/Ha): 80; Herbicidal activity SIDSP ([3]; 125 g/Ha): 90
Cc1nn(C)c(=O)c(-c2c(F)ccc(Cl)c2CCc2ccc(Cl)cc2)c1OC(=O)C(C)C [Compound 1.089, [5-[3-chloro-2-[2-(4-chlorophenyl)ethyl]-6-fluoro-phenyl]-1,3-dimethyl-6-oxo-pyridazin-4-yl] 2-methylpropanoate] | 40 | 70 | 80 | 90 | 90 | 90 |  |  |  |  |  | 90 | 100 | 100 | 70 | 80 | 90 | 90 | 100 | 100 | Herbicidal activity SIDSP ([3]; 30 g/Ha): 80; Herbicidal activity SIDSP ([3]; 125 g/Ha): 100
Cc1nn(C)c(=O)c(-c2c(F)ccc(Cl)c2CCc2ccc(F)cc2)c1OC(=O)C(C)C [Compound 1.125, [5-[3-chloro-6-fluoro-2-[2-(4-fluorophenyl)ethyl]phenyl]-1,3-dimethyl-6-oxo-pyridazin-4-yl] 2-methylpropanoate] | 40 | 50 | 60 | 70 | 80 | 90 | 90 | 90 | 90 | 90 | 90 | 80 | 90 | 100 | 70 | 70 | 70 | 80 | 80 | 90 | Herbicidal activity POLCO ([2]; 30 g/Ha): 90; Herbicidal activity SIDSP ([3]; 125 g/Ha): 90
